Laboratory results as given in US20260272908A1 (VANDERBILT UNIVERSITY, priority 2023, published 2026).
Entries after “also recorded” stand apart in the source; their conditions may differ.

Key:
Mist1-Kras mice [1] = assay: Pyrvinium treatment of Mist1-Kras mice (metaplasia progression to dysplasia, gastric corpus histology and immunostaining); format: in vivo, mouse; settings: pyrvinium 2 weeks, qRT-PCR
p-ERK = assay: Western blot for phospho-ERK in hPCO lines; format: cell-based, human
Text: FIG. 7C-7D show Western blot analysis for p-STAT3 and p-ERK in three Pyr-resistant hPCO lines after Pyr treatment (FIG. 7C) and ratios of p-STAT3/t-STAT3 and p-ERK/t-ERK (FIG. 7D). FIG. 7E-7F show a Western blot for basal p-STAT3 and p-ERK levels in Pyr-sensitive and Pyr-resistant hPCO lines (FIG. 7E), and ratios of p-STAT3/t-STAT3 and p-ERK/t-ERK (FIG. 7F). FIG. 7G-7H show a Western blot for p-STAT3 and p-ERK in hPCO-3 after treatment of trametinib (Tra), Pyr, and their combinations (FIG. 7G), and ratios of p-STAT3/t-STAT3 and p-ERK/t-ERK (FIG. 7H). […] FIG. 7K-7L show phase-contrast images of Pyr-sensitive hPCO-2 treated with DMSO, Pyr, STAT3-IN-1, Sttatic, and Cryptotanshinone (CPT) for 6 days (FIG. 7K) and quantitation of organoid diameters before and after treatment (FIG. 7L). Mean±standard deviation. […]
Total proteins were extracted from organoids using radioimmunoprecipitation assay buffer (10 mmol/L Tris-HC, pH 7.2, 150 mmol/L NaCl, 5 mmol/L EDTA, 0.1% sodium dodecyl sulfate, 1.0% Triton X-100, 1% deoxycholate) with protease inhibitors. The protein concentration was measured The Bio-Rad Protein Assay (Bio-Rad Laboratories, Hercules, CA). […] After washes with TBS-T, chemiluminescence was detected with an Amersham Imager 680 instrument (GE Healthcare) after 1 mL of the SuperSignal West Femto Maximum Sensitivity Substrate (ThermoFisher) was applied to the membranes.

Meta4 organoids = settings: pyrvinium, 1 day
wild-type mice = assay: Histopathology of major organs in wild-type mice; format: in vivo, mouse; settings: 4 mg/L in drinking water, 2 weeks
Experimental: Hematoxylin and eosin images were obtained from wild-type mice treated with either dimethyl sulfoxide (DMSO) or Pyr (4 mg/L in drinking water) for a duration of 2 weeks. Scale bar=100 μm.
(§1) One or two weeks after either DMSO or pyrvinium treatment, gastric mucosa in each group of mice was examined.

Mist1-Kras mice [2] = assay: Pyrvinium treatment of Mist1-Kras mice (metaplasia progression to dysplasia, gastric corpus histology and immunostaining); format: in vivo, mouse
Experimental: FIG. 5B schematically illustrates the H&E (top) and immunostaining for UEA1 (middle) and Ki-67 (bottom) in the wild type mice treated with Pyr for 2 weeks and Mist1-Kras mice treated with DMSO or Pyr for 1 or 2 weeks. FIG. 5C schematically illustrates the quantitation of Ki-67-positive cells per 20× field. […] Mean±standard deviation. Unpaired t-test or one-way ANOVA with Tukey's multiple comparisons. ns, not significant. *P<0.05. **P<0.01. ***P<0.001. Scale bar=100 μM.
To prepare formaldehyde-fixed paraffin-embedded (FFPE) organoids/spheres, Matrigel domes containing organoids/spheres were fixed in 4% PFA at room temperature for 30 min. The fixed organoids were embedded in HistoGel™ (Thermo Fisher Scientific) followed by a wash in PBS for 1 min and processed according to a standard histological protocol for paraffin embedding. Human tissues were fixed in 10% neutral buffered formalin (NBF) for 1 week at room temperature and mouse tumor tissues were fixed in 4% paraformaldehyde (PFA) solution overnight at 4° C. The fixed tissues were transferred into 70% ethanol and processed according to a standard histological protocol for subsequent paraffin embedding. Four to five micrometers of organoid/sphere or tissue paraffin sections were de-paraffinized in Histoclear solution (Electron Microscopy Services) and rehydrated through a series of ethanol (100%, 95% and 75%).
Antigen retrieval was performed using a pH 6 or pH 9 target retrieval solution (Dako) in a pressure cooker for 15 min and cooled for 1 hour. For immunofluorescence staining, each section was incubated in serum-free protein block solution (Dako) at room temperature for 1.5 hours. Primary antibodies were diluted in Antibody Diluent with background reducing components (Dako) and applied to sections, then incubated overnight at 4° C. Slides were washed in PBS for 5 min three times and secondary antibodies diluted in Antibody Diluent (Dako) were applied to each section. Sections were incubated at room temperature for 1 hour and PBS with Hoechst (1:5000) was applied to the sections for 5 min for nuclei counterstaining. Slides were washed in PBS for 5 min three times, mounted with ProLong™ Gold Antifade Mountant (ThermoFisher) and cover slipped. All fluorescence images were acquired using a Zeiss Axio Imager M2 microscope with Axiovision digital imaging system or scanned using the Aperio Versa 200 Fluorescent Slide Scanner (Leica) at the Vanderbilt Digital Histology Shared Resource. Preparation and overlay of fluorescence images were performed using Adobe Photoshop.
For immunohistochemical staining, sections were blocked in Peroxidase Blocking Solution (Vector Laboratories) at room temperature for 20 min followed by serum-free protein block solution (Dako) at room temperature for 1.5 hours. Primary antibodies were diluted in Antibody Diluent with background reducing components (Dako) and applied to sections, then incubated overnight at 4° C. Horseradish-peroxidase (HRP)-conjugated secondary antibodies were applied to sections and incubated for 15 min at room temperature followed by three washes in PBS for 5 min each. ImmPRESS polymer detection reagent and ImmPACT DAB substrate kits (Vector Laboratories) were used for antibody detection. Images were scanned on a SCN400 slide scanner (Leica) at 20× magnification.
as §1

[3] = Mist1-Kras mice 3 months after tamoxifen, pyrvinium 1 or 2 weeks
[4] = Mist1-Kras mice, pyrvinium 2 weeks

Cc1cc(/C=C/c2ccc3cc(N(C)C)ccc3[n+]2C)c(C)n1-c1ccccc1 [pyrvinium]
expression of myeloid-derived suppressor cell (MDSC)-related markers (Mist1-Kras mice [1]): tended to increase, although the changes were not significant
p-ERK levels (p-ERK; three pyrvinium-resistant hPCO lines): no significant differences
p-ERK levels (p-ERK; three pyrvinium-sensitive hPCO lines): decreased
DSC (dysplastic stem cell) subpopulation (Meta4 organoids): not observed
STAT3-target genes Fos, Fosb, and Jun (Meta4 organoids): downregulated
binding and transcription regulator activities (PANTHER gene ontology) (Meta4 organoids): decreased
cells damaged and mostly differentiated cells among treated cells (Meta4 organoids): over 73.9%
damage-related genes Dusp4, Ddit3 and Areg (Meta4 organoids): upregulated
histopathology of major organs (stomach, esophagus, liver, kidney, heart, lung, spleen) (wild-type mice): did not induce any noticeable histopathological abnormalities; also recorded: unaffected
acid-secreting parietal cells in corpus mucosa (Mist1-Kras mice [2]; [3]): gradually repopulated the corpus mucosa
number of hyperplastic foveolar glands with UEA1 and Ki-67 positive proliferating cells (Mist1-Kras mice [2]; [3]): significantly decreased
CD4^+ T cell population (Mist1-Kras mice [2]; [4]): dramatic decrease
CD8^+ T cells (Mist1-Kras mice [2]; [4]): did not show a significant difference
CD19^+ B cells (Mist1-Kras mice [2]; [4]): did not show a significant difference
CD163-positive M2-macrophages (Mist1-Kras mice [2]; [4]): significantly decreased
NK cells (Mist1-Kras mice [2]; [4]): significantly decreased
Pim-1 (immunostaining, gastric corpus) (Mist1-Kras mice [2]; [4]): downregulation
number of dysplastic glands (Mist1-Kras mice [2]; [4]): significant decrease
p-STAT3 (immunostaining, gastric corpus) (Mist1-Kras mice [2]; [4]): downregulation
total number of CD3^+ T cells (Mist1-Kras mice [2]; [4]): decreased
